# Residues, ends and D or L forms follow the SMILES beside them.
# Experiments:
# Swiss mice = experiment: Acute toxicity in mice (maximum tolerated dose, IV bolus); type: in vivo, mouse; conditions: replicates 1-4
# Method: Lipopeptide solutions were prepared in 0.9% saline and stored at 4 °C before use. Swiss mice (female, 7-week-old, 22–28 g) were used in the study. A mouse was administered an intravenous bolus of the lipopeptide (mg/kg free base) through a lateral tail vein (≤0.1 mL). After the injection, the mouse was released back into the cage and monitored for clinical signs of toxicity from 0 to 24 h after injection as follows: every 10 min in the first 2 h, every half hour from 2 to 4 h, every hour from 4 to 12 h, and every 2 h from 12 to 24 h.
# A. baumannii AB5075 = experiment: Transcriptomic analysis (RNA-Seq) of bacteria; type: cell-based, Acinetobacter baumannii; conditions: for log2FC, gene ABUW_RS01945 (acyl-CoA thioesterase II) / log2FC, gene ABUW_RS02545 (acyl-CoA thioesterase) / log2FC, gene ABUW_RS05045 (acyl-CoA thioesterase) / log2FC, gene ABUW_RS17575 (acyl-CoA thioesterase): pathway Fatty Acid and Lipid Degradation
# Method: Mid-log phase A. baumannii AB5075 (~10^8 CFU/mL) in CaMHB was treated with colistin (2 and 8 μg/mL), F287, F319 or F365 (equimolar concentration to colistin) for 1 and 4 h. Total RNA was extracted using TRIzol Reagent (Invitrogen, USA) and RNeasy Mini Kit (Qiagen, Germany). Quality check of RNA samples was conducted with NanoDrop (Thermo Fisher Scientific, USA) and Agilent 2100 Bioanalyzer (Agilent Technologies, USA) for sequencing (150 bp paired-end) at Genewiz (Shanghai, China). Raw reads were aligned to A. baumannii AB5075 genome (GCF_000963815, https://www.ncbi.nlm.nih.gov/assembly/GCF_000963815.1/) using subread-aligner (subread 2.0.1) and summarized by featureCounts (subread 2.0.1). Principal component analysis (PCA) was conducted with mixOmics 6.14.1 in R. Differentially expressed genes were determined using limma 3.46.0 with a combination of fold change ≥ 2 and false discovery rate (FDR, by Benjamini–Hochberg algorithm) adjusted P-value ≤ 0.05 (n = 3). Enrichment analysis of gene differential expression in AB5075 was conducted using BioCyc (A. baumannii AB5075, version 25.5). UpSetR 1.4.0, ComplexHeatmap 2.6.2 and circlize 0.4.13 were used for data visualization. Raw data were deposited in Short Reads Archive (SRA) database under accession numbers SRR15235669-SRR15235725.
# [1] = H vs Cont, 1h, RNA-Seq A. baumannii AB5075
# [2] = H vs Cont, 4h, RNA-Seq A. baumannii AB5075
# [3] = H, 4h vs 1h, RNA-Seq A. baumannii AB5075
# [4] = L vs Cont, 1h, RNA-Seq A. baumannii AB5075
smiles,measurement,setting,value
"CCCCCCCC(=O)N[C@@H](CCN)C(=O)N[C@H](C(=O)N[C@@H](CN)C(=O)N[C@H]1CCNC(=O)[C@H]([C@@H](C)O)NC(=O)[C@H](CCN)NC(=O)[C@H](CCN)NC(=O)[C@H](CC)NC(=O)[C@@H](CC(C)C)NC(=O)[C@H](CCN)NC1=O)[C@@H](C)O [Lipopeptide F287] (HELM PEPTIDE1{[CCCCCCCC(=O)[*:2]].[Dab].T.[NC[C@H](N[*:1])C(=O)[*:2]].[Dab].[Dab].[dL].[Abu].[Dab].[Dab].T}$PEPTIDE1,PEPTIDE1,5:R3-11:R2$$$V2.0)","MTD, single replicate",Swiss mice,6.6 mg/kg
same,"logFC (Differential gene expression for all genes), Geneid ABUW_RS00005",A. baumannii AB5075; [1],-0.2237
same,"logFC (Differential gene expression for all genes), Geneid ABUW_RS00020",A. baumannii AB5075; [1],0.4813
same,"logFC (Fold change), gene ABUW_RS00010",A. baumannii AB5075; [1],0.6329
same,"logFC (Fold change), gene ABUW_RS00030",A. baumannii AB5075; [1],-0.7589
same,"logFC (Fold change), gene ABUW_RS00035",A. baumannii AB5075; [1],1.171
same,"logFC (Fold change), gene recF (ABUW_RS00015)",A. baumannii AB5075; [1],0.0004857
same,"log2FC, gene ABUW_RS01945 (acyl-CoA thioesterase II)","A. baumannii AB5075; H vs Cont, 1h",0.3471
same,"log2FC, gene ABUW_RS02545 (acyl-CoA thioesterase)","A. baumannii AB5075; H vs Cont, 1h",1.413
same,"log2FC, gene ABUW_RS05045 (acyl-CoA thioesterase)","A. baumannii AB5075; H vs Cont, 1h",0.6077
same,"log2FC, gene ABUW_RS17575 (acyl-CoA thioesterase)","A. baumannii AB5075; H vs Cont, 1h",-1.9504
same,"logFC (Differential gene expression for all genes), Geneid ABUW_RS00005",A. baumannii AB5075; [2],-0.2595
same,"logFC (Differential gene expression for all genes), Geneid ABUW_RS00020",A. baumannii AB5075; [2],0.07692
same,"logFC (Fold change), gene ABUW_RS00010",A. baumannii AB5075; [2],1.124
same,"logFC (Fold change), gene ABUW_RS00030",A. baumannii AB5075; [2],-1.151
same,"logFC (Fold change), gene ABUW_RS00035",A. baumannii AB5075; [2],1.24
same,"logFC (Fold change), gene recF (ABUW_RS00015)",A. baumannii AB5075; [2],-1.077
same,"log2FC, gene ABUW_RS01945 (acyl-CoA thioesterase II)","A. baumannii AB5075; H vs Cont, 4h",-0.6425
same,"log2FC, gene ABUW_RS02545 (acyl-CoA thioesterase)","A. baumannii AB5075; H vs Cont, 4h",1.263
same,"log2FC, gene ABUW_RS05045 (acyl-CoA thioesterase)","A. baumannii AB5075; H vs Cont, 4h",0.8039
same,"log2FC, gene ABUW_RS17575 (acyl-CoA thioesterase)","A. baumannii AB5075; H vs Cont, 4h",-1.276
same,"4h_1h logFC (Differential gene expression for all genes), Geneid ABUW_RS00005",A. baumannii AB5075; [3],-0.6471
same,"4h_1h logFC (Differential gene expression for all genes), Geneid ABUW_RS00010",A. baumannii AB5075; [3],0.4305
same,"4h_1h logFC (Differential gene expression for all genes), Geneid ABUW_RS00015",A. baumannii AB5075; [3],-1.349
same,"4h_1h logFC (Differential gene expression for all genes), Geneid ABUW_RS00020",A. baumannii AB5075; [3],0.3991
same,"logFC (Differential gene expression for all genes), Geneid ABUW_RS00005",A. baumannii AB5075; [4],0.09601
same,"logFC (Differential gene expression for all genes), Geneid ABUW_RS00020",A. baumannii AB5075; [4],0.1731
same,"logFC (Fold change), gene ABUW_RS00010",A. baumannii AB5075; [4],0.3235
same,"logFC (Fold change), gene ABUW_RS00030",A. baumannii AB5075; [4],-0.01757
same,"logFC (Fold change), gene ABUW_RS00035",A. baumannii AB5075; [4],0.2853
same,"logFC (Fold change), gene recF (ABUW_RS00015)",A. baumannii AB5075; [4],0.06622
same,"log2FC, gene ABUW_RS01945 (acyl-CoA thioesterase II)","A. baumannii AB5075; L vs Cont, 1h",0.394
same,"log2FC, gene ABUW_RS02545 (acyl-CoA thioesterase)","A. baumannii AB5075; L vs Cont, 1h",0.4759
same,"log2FC, gene ABUW_RS05045 (acyl-CoA thioesterase)","A. baumannii AB5075; L vs Cont, 1h",-0.04078
same,"log2FC, gene ABUW_RS17575 (acyl-CoA thioesterase)","A. baumannii AB5075; L vs Cont, 1h",0.9551

# — PMC8956739, “A synthetic lipopeptide targeting top-priority multidrug-resistant Gram-negative pathogens” (Nature Communications, 2022)
